Measured values: PubChem BioAssay (NCI)
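Results reflect a 48-hour exposure of cells in 96-well plates to compound at five concentrations. At the GI50, growth is halved. TGI: total growth inhibition.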

The molecules below were run on SK-MEL-5 melanoma (assay: NCI tumour cell line growth inhibition, 48 h).

Row | SMILES | TGI
1 | CN1CCOC(c2ccccc2)O1 (stereo unspecified) | > 100 µM
2 | CCCNC(=S)NNC(=O)CSc1nc(-c2ccccc2)c(-c2ccccc2)[nH]1 | 62.1 µM
3 | CC(CO)(CO)N1C(=O)C2C3C=CC(C3)C2C1=O (stereo unspecified) | > 100 µM
4 | CC1c2c(Cl)nc3ccccc3c2Oc2c1c(Cl)nc1ccccc21 | > 100 µM
5 | COC1(OC)C(N(C)C)=C(Cl)C(=O)/C1=C/C=O | > 100 µM
6 | CC(=O)Oc1ccc2c(C)cc(=O)oc2c1OC(C)=O | > 100 µM
7 | Cc1ccccc1N1C(=O)C2C=CC(n3[nH]c(=O)n(Cc4ccccc4)c3=O)CC2C1=O (stereo unspecified) | > 100 µM
8 | CSc1ncnc2c1ncn2CCC(=O)OC(C)(C)C | > 100 µM
9 | CN(CC(=O)O)c1ncc2c(n1)CCCC2 | > 100 µM
10 | Oc1[nH]c2ccccc2c1N=NC(=S)Nc1cccc(Cl)c1 | 18.8 µM
11 | COc1ccc(/C=C2\N=C(SC)N(CN3CCOCC3)C2=O)cc1 | > 100 µM
12 | O=C(Nc1nc(C23CC4CC(CC(C4)C2)C3)cs1)c1cc2ccc(O)cc2oc1=O | 39 µM
13 | S=c1sc2c(Cl)nc(Cl)nc2n1-c1ccccc1 | > 100 µM
14 | Cn1ccc(C(=O)NCCN(CCNC(=O)c2ccn(C)c(=O)c2O)CCNC(=O)c2cccc(=O)n2O)c(O)c1=O | > 100 µM
15 | COc1ccc(P2(=S)OC(C)(C)C(C)(C)O2)cc1 | > 100 µM
16 | O=C(O)[C@@H]1CCS(=O)(=O)N1 | > 100 µM
17 | CC(C)(C)OC(=O)[C@H]1CCC(=S)N1Cc1ccccc1 | > 100 µM
18 | COc1ccc(S(=O)(=O)c2nnc(S(=O)(=O)Cc3ccccc3)s2)cc1 | 34.2 µM
19 | CC1CCC(=O)C(C(=O)CC2CC(=O)N(C)C(=O)C2)C1 (stereo unspecified) | > 100 µM
20 | COc1ccc(-[n+]2nc(S(=O)(=O)O)c(/C=C/c3ccc(N(C)C)cc3)cc2C#N)cc1 | > 100 µM
21 | CC(=O)Oc1c2c(c(O)c3ccccc13)C(n1cnc3c(ncn3C3OC(CO)C4OC(C)(C)OC43)c1=N)CCC2 (stereo unspecified) | 24.5 µM
22 | CN(C)CCC(=O)c1ccccc1 | > 56.9 µM
23 | CCOc1ccccc1NC(=O)C(=O)CC(=O)c1sc(Nc2nnc(-c3ccc(Cl)c(Cl)c3)o2)nc1C | > 100 µM

What follows are molecules tested on KM12 colon (assay: NCI tumour cell line growth inhibition, 48 h).

Row | SMILES | TGI
24 | CN1CCOC(c2ccccc2)O1 (stereo unspecified) | > 100 µM
25 | CCCNC(=S)NNC(=O)CSc1nc(-c2ccccc2)c(-c2ccccc2)[nH]1 | > 100 µM
26 | CC(=O)c1sc(Nc2nnc(-c3ccc(-c4nnc(Nc5nc(C)c(C(C)=O)s5)o4)cc3)o2)nc1C | > 10 µM
27 | CC(CO)(CO)N1C(=O)C2C3C=CC(C3)C2C1=O (stereo unspecified) | > 100 µM
28 | CC1c2c(Cl)nc3ccccc3c2Oc2c1c(Cl)nc1ccccc21 | > 100 µM
29 | CC(=O)Oc1ccc2c(C)cc(=O)oc2c1OC(C)=O | > 100 µM
30 | N#Cc1c2ccccc2cn1-c1ccc(F)cc1 | 97.4 µM
31 | Cc1ccccc1N1C(=O)C2C=CC(n3[nH]c(=O)n(Cc4ccccc4)c3=O)CC2C1=O (stereo unspecified) | > 100 µM
32 | CSc1ncnc2c1ncn2CCC(=O)OC(C)(C)C | > 100 µM
33 | CN(CC(=O)O)c1ncc2c(n1)CCCC2 | > 100 µM
34 | Oc1[nH]c2ccccc2c1N=NC(=S)Nc1cccc(Cl)c1 | 58.8 µM
35 | COc1ccc(/C=C2\N=C(SC)N(CN3CCOCC3)C2=O)cc1 | > 100 µM
36 | O=C(Nc1nc(C23CC4CC(CC(C4)C2)C3)cs1)c1cc2ccc(O)cc2oc1=O | 29.9 µM
37 | S=c1sc2c(Cl)nc(Cl)nc2n1-c1ccccc1 | > 100 µM
38 | Cn1ccc(C(=O)NCCN(CCNC(=O)c2ccn(C)c(=O)c2O)CCNC(=O)c2cccc(=O)n2O)c(O)c1=O | > 100 µM
39 | COc1ccc(P2(=S)OC(C)(C)C(C)(C)O2)cc1 | > 100 µM
40 | O=C(O)[C@@H]1CCS(=O)(=O)N1 | > 100 µM
41 | CC(C)(C)OC(=O)[C@H]1CCC(=S)N1Cc1ccccc1 | > 100 µM
42 | COc1ccc(S(=O)(=O)c2nnc(S(=O)(=O)Cc3ccccc3)s2)cc1 | > 100 µM
43 | NC(=O)C12CC3CC(CC(F)(C3)C1)C2 | > 100 µM
44 | CC1CCC(=O)C(C(=O)CC2CC(=O)N(C)C(=O)C2)C1 (stereo unspecified) | > 100 µM
45 | COc1ccc(-[n+]2nc(S(=O)(=O)O)c(/C=C/c3ccc(N(C)C)cc3)cc2C#N)cc1 | > 100 µM
46 | CC(=O)Oc1c2c(c(O)c3ccccc13)C(n1cnc3c(ncn3C3OC(CO)C4OC(C)(C)OC43)c1=N)CCC2 (stereo unspecified) | 29 µM
47 | CN(C)CCC(=O)c1ccccc1 | > 61.4 µM
48 | CCOc1ccccc1NC(=O)C(=O)CC(=O)c1sc(Nc2nnc(-c3ccc(Cl)c(Cl)c3)o2)nc1C | > 100 µM

Each molecule was assayed on BT-549 breast (assay: NCI tumour cell line growth inhibition, 48 h).

Row | SMILES | TGI
49 | O=c1cc(-c2cccc3ccccc23)[nH]c2ncccc12 | > 100 µM
50 | Cn1ccc(C(=O)NCCN(CCNC(=O)c2ccn(C)c(=O)c2O)CCNC(=O)c2cccc(=O)n2O)c(O)c1=O | > 100 µM
51 | COc1ccc(S(=O)(=O)c2nnc(S(=O)(=O)Cc3ccccc3)s2)cc1 | 49.8 µM
52 | CC1CCC(=O)C(C(=O)CC2CC(=O)N(C)C(=O)C2)C1 (stereo unspecified) | > 100 µM
53 | COc1ccc(-[n+]2nc(S(=O)(=O)O)c(/C=C/c3ccc(N(C)C)cc3)cc2C#N)cc1 | > 100 µM

The molecules below were run on SK-MEL-2 melanoma (assay: NCI tumour cell line growth inhibition, 48 h).

Row | SMILES | GI50 | TGI
54 | O=c1cc(-c2cccc3ccccc23)[nH]c2ncccc12 | 0.0136 µM | > 100 µM
55 | CN1CCOC(c2ccccc2)O1 (stereo unspecified) | – | > 100 µM
56 | CCCNC(=S)NNC(=O)CSc1nc(-c2ccccc2)c(-c2ccccc2)[nH]1 | – | > 100 µM
57 | CC(CO)(CO)N1C(=O)C2C3C=CC(C3)C2C1=O (stereo unspecified) | – | > 100 µM
58 | CC1c2c(Cl)nc3ccccc3c2Oc2c1c(Cl)nc1ccccc21 | – | > 100 µM
59 | CC(=O)Oc1ccc2c(C)cc(=O)oc2c1OC(C)=O | – | > 100 µM
60 | Cc1ccccc1N1C(=O)C2C=CC(n3[nH]c(=O)n(Cc4ccccc4)c3=O)CC2C1=O (stereo unspecified) | – | > 100 µM
61 | CN(CC(=O)O)c1ncc2c(n1)CCCC2 | – | > 100 µM
62 | Oc1[nH]c2ccccc2c1N=NC(=S)Nc1cccc(Cl)c1 | – | 89.6 µM
63 | COc1ccc(/C=C2\N=C(SC)N(CN3CCOCC3)C2=O)cc1 | – | > 100 µM
64 | S=c1sc2c(Cl)nc(Cl)nc2n1-c1ccccc1 | – | > 100 µM
65 | Cn1ccc(C(=O)NCCN(CCNC(=O)c2ccn(C)c(=O)c2O)CCNC(=O)c2cccc(=O)n2O)c(O)c1=O | – | > 100 µM
66 | COc1ccc(P2(=S)OC(C)(C)C(C)(C)O2)cc1 | – | > 100 µM
67 | O=C(O)[C@@H]1CCS(=O)(=O)N1 | – | > 100 µM
68 | CC(C)(C)OC(=O)[C@H]1CCC(=S)N1Cc1ccccc1 | – | > 100 µM
69 | COc1ccc(S(=O)(=O)c2nnc(S(=O)(=O)Cc3ccccc3)s2)cc1 | – | 45.1 µM
70 | NC(=O)C12CC3CC(CC(F)(C3)C1)C2 | – | > 100 µM
71 | CC1CCC(=O)C(C(=O)CC2CC(=O)N(C)C(=O)C2)C1 (stereo unspecified) | – | > 100 µM
72 | COc1ccc(-[n+]2nc(S(=O)(=O)O)c(/C=C/c3ccc(N(C)C)cc3)cc2C#N)cc1 | – | > 100 µM
73 | CC(=O)Oc1c2c(c(O)c3ccccc13)C(n1cnc3c(ncn3C3OC(CO)C4OC(C)(C)OC43)c1=N)CCC2 (stereo unspecified) | – | 29.4 µM
74 | CN(C)CCC(=O)c1ccccc1 | – | > 84.4 µM
75 | CCOc1ccccc1NC(=O)C(=O)CC(=O)c1sc(Nc2nnc(-c3ccc(Cl)c(Cl)c3)o2)nc1C | – | > 100 µM

These molecules were tested on RPMI-8226 leukemia (assay: NCI tumour cell line growth inhibition, 48 h).

Row | SMILES | TGI
76 | O=c1cc(-c2cccc3ccccc23)[nH]c2ncccc12 | > 100 µM
77 | CN1CCOC(c2ccccc2)O1 (stereo unspecified) | > 100 µM
78 | CCCNC(=S)NNC(=O)CSc1nc(-c2ccccc2)c(-c2ccccc2)[nH]1 | > 100 µM
79 | CC(=O)c1sc(Nc2nnc(-c3ccc(-c4nnc(Nc5nc(C)c(C(C)=O)s5)o4)cc3)o2)nc1C | > 100 µM
80 | CC(CO)(CO)N1C(=O)C2C3C=CC(C3)C2C1=O (stereo unspecified) | > 100 µM
81 | CC1c2c(Cl)nc3ccccc3c2Oc2c1c(Cl)nc1ccccc21 | > 100 µM
82 | COC1(OC)C(N(C)C)=C(Cl)C(=O)/C1=C/C=O | > 100 µM
83 | CC(=O)Oc1ccc2c(C)cc(=O)oc2c1OC(C)=O | 89.9 µM
84 | N#Cc1c2ccccc2cn1-c1ccc(F)cc1 | 61.2 µM
85 | Cc1ccccc1N1C(=O)C2C=CC(n3[nH]c(=O)n(Cc4ccccc4)c3=O)CC2C1=O (stereo unspecified) | > 100 µM
